# From PubChem BioAssay AID2842 (Southern Research Institute, 2010)
# Test system: M. tuberculosis H37Rv growth inhibition
# Assay: Mycobacterium tuberculosis H37Rv growth inhibition, putative kinase inhibitor library, confirmatory dose response (AID 2842);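 note: bacteria incubated one week before Alamar blue readout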
row,Structure (SMILES),IC90 [µg/mL]
1,O=C(Nc1nnc(-c2ccc(F)cc2)o1)c1sc2ccccc2c1Cl,9.54
2,Cc1ccc(C(=O)Nc2nnc(C3=COCCO3)o2)cc1,2.78
3,CC(=O)Nc1ccc2nc(Nc3nc4ccc(Cl)cc4s3)sc2c1,8.93
4,C=CCOC(=O)C1=C(C)NC(SCC(=O)OCC)=C(C#N)C1c1cccs1 (configuration not stated),4.44
5,Cc1ccc(C)c(-c2nnc(NC(=O)c3ccc([N+](=O)[O-])cc3)o2)c1,78.5
6,CCCCn1c(N2CCN(Cc3ccc(Cl)c(Cl)c3)CC2)nc2c1c(=O)[nH]c(=O)n2C,7.15
7,Cc1ccc(C)c(-c2nnc(NC(=O)C(C)(C)C)o2)c1,1.32
8,O=C(c1ccc(F)cc1)N1N=C(c2c(-c3ccccc3)c3cc(Br)ccc3[nH]c2=O)CC1c1ccco1 (configuration not stated),13.1
9,Cc1ccc(Cn2c(N3CCN(Cc4cccc5ccccc45)CC3)nc3c2c(=O)[nH]c(=O)n3C)cc1,25.4
10,Clc1cccc(Nc2ccc(NCc3ccccc3)nn2)c1,6.71
11,COC(=O)c1ccc(NC(=O)CSc2nc(-c3cccc(C)c3)ns2)cc1,< 0.2
12,CC(=O)CSc1nc2c([nH]c3ccccc32)c(=O)n1-c1cc(C)ccc1C,22
13,CCCCOc1ccc(C(=O)Nc2nnc(-c3ccco3)o2)cc1,0.8
14,O=C(Nc1nnc(-c2ccc(Br)cc2)o1)C1=COCCO1,24.9
15,COc1ccc(C)c2sc(NNC(=O)c3cccc(F)c3)nc12,32.6
16,COc1ccc2nc(Nc3nc(C(C)(C)C)cs3)sc2c1,10.1
17,O=C(Nc1nnc(-c2ccco2)o1)c1ccccc1F,6.69
18,CN1CCc2c(sc(NC(=O)c3ccc(C(C)(C)C)cc3)c2C(N)=O)C1,12.7
19,Cc1cc(C)c2nc(NNC(=O)c3cc(-c4cccs4)nc4ccccc34)sc2c1,24.6

row,Structure (SMILES),IC90 [µg/mL]
1,Cc1cc(C)cc(Nc2cc(C)nc3c(-c4ccccc4)cnn23)c1,2.7
2,O=C(/C=C/c1ccccc1)Nc1nnc(-c2ccc3c(c2)CCCC3)o1,1.67
3,CCCCOc1ccc(C(=O)Nc2nnc(-c3cc(C)ccc3C)o2)cc1,25.4
4,COc1cc(/C=C(\C#N)c2nc(-c3ccc(C)cc3)cs2)cc([N+](=O)[O-])c1O,3.26
5,O=C(Nc1cccc(Cl)c1)Nc1c2c(nn1-c1ccccc1)CSC2,19.7
6,COc1ccc(-c2nnc(NC(=O)c3ccccc3Br)o2)cc1,82.2
7,CC(C)OC(=O)c1ccc(NC(=O)C2COc3ccccc3O2)cc1 (configuration not stated),7.2
8,Nc1[nH]nc2nc(N3CCCCC3)nc(-c3ccc4c(c3)OCO4)c12,11.6
9,CC(=O)N1CCc2c(sc(NC(=O)c3ccc(C)c(C)c3)c2C(N)=O)C1,3.4
10,COc1ccc(CNC(=O)c2c(C)oc3c2C(=O)c2ccccc2C3=O)cc1,1.1
11,NC(=O)c1c(NC(=O)c2ccc([N+](=O)[O-])o2)sc2c1CCCCC2,0.52
12,CCc1ccc(Cc2cnc(NC(=O)c3c(C)coc3C)s2)cc1,7.42
13,Fc1cccc2sc(Nc3nnc(-c4ccco4)o3)nc12,2.08
14,CC1CCCN(c2nc3c(c(=O)[nH]c(=O)n3C)n2CCCSc2nc3ccccc3s2)C1 (configuration not stated),16.6
15,CCOC(=O)CNC(=O)CSc1ncnc2c1nnn2-c1ccc(OC)cc1,6.79
16,O=C(COc1ccc(Cl)cc1)NCCSc1ncc(-c2ccc(F)cc2)[nH]1,10
17,Oc1ccc(Nc2nc(NCc3ccccc3)c3ccccc3n2)cc1,2.59
18,O=C(Nc1nnc(-c2ccccc2)o1)c1nc2ccccc2s1,5.84
19,COC(=O)C(C)Oc1ccc2cc(-c3ccc(OC)c(OC)c3)c(=O)oc2c1 (configuration not stated),6.7

row,Structure (SMILES),IC90 [µg/mL]
1,COc1ccc(-c2nnc(NC(=O)C3CC3)o2)cc1,1.06
2,CSc1cccc2sc(Nc3cccc(C)c3)nc12,12.2
3,Clc1ccc(Cn2nnc3c(SCc4cccnc4)ncnc32)cc1,13.4
4,CC(C)c1cc(-c2nc(-c3ccccc3)no2)n[nH]1,12.7
5,COc1ccc(OC)c(Nc2nc(NCCN(C)C)nc3c2cnn3-c2ccccc2)c1,7.29
6,O=C(NCCCSc1nc2ccccc2o1)Nc1ncccn1,25.1
7,O=C(Cc1cccc2ccccc12)Nc1nnc(-c2cccs2)o1,40.1
8,O=C(Nc1nnc(-c2ccc(F)cc2)o1)c1cccc([N+](=O)[O-])c1,13.2
9,CCOc1ccc(-c2nnc3c4cc5c(cc4n(Cc4cccc(F)c4)cc2-3)OCO5)cc1,54.2
10,CSc1ccccc1-c1nnc(NC(=O)c2cc(Cl)ccc2Cl)o1,0.98
11,COc1cccc(-c2nnc(NC(=O)c3ccccc3Br)o2)c1,2.17
12,O=C(c1cccs1)N(CCCn1ccnc1)c1nc2c(Cl)cccc2s1,5.18
13,COc1ccccc1-c1nnc(NC(=O)CCc2ccccc2)o1,6.99
14,CCOc1cc(-c2nnc(NC(=O)c3cc4ccccc4cc3OC)o2)cc(OCC)c1OCC,2.68
15,Cc1c(Cl)ccc2sc(N(CCCn3ccnc3)C(=O)/C=C/c3cccs3)nc12,0.24
16,Cc1ccc(-c2nnc(NC(=O)c3ccc(S(=O)(=O)N(C)C)cc3)o2)c(C)c1,41.1
17,C/C(=N\Nc1nc(=O)[nH]nc1C)c1ccccc1O,< 0.2
18,O=C(/C=C/c1cccs1)N(CCCn1ccnc1)c1nc2ccccc2s1,1.43
19,COc1cc2ccccc2cc1C(=O)Nc1nnc(-c2cc(Cl)ccc2Cl)o1,27.6
